Assay results: ChEMBL document CHEMBL5338773, “First-in-Class Selective Inhibitors of the Lysine Acetyltransferase KAT8” (J Med Chem, 2023)
Calls of active or inactive are those of the source. No cut-off for these calls is given here.

Columns and labels:
HeLa [1] = assay: Induction of cell cycle arrest in human HeLa cells assessed as increase in number of cells at sub-G1 phase with DNA hypodiploid at 100 uM incubated for 72 hrs by PI-staining based flow cytometry (Rvb=2%); format: functional
MCF7 = assay: Antiproliferative activity against human MCF7 cells assessed as cell proliferation inhibition at 10 to 100 uM incubated for 72 hrs by MTT assay; format: functional, cell-based; conditions: dose 10-100 µM
NCI-H1299 = assay: Antiproliferative activity against human NCI-H1299 cells assessed as cell proliferation inhibition at 10 to 100 uM incubated for 72 hrs by MTT assay; format: functional, cell-based; conditions: dose 10-100 µM
HT-29 [2] = assay: Induction of cell cycle arrest in human HT-29 cells assessed as increase in number of cells at sub-G1 phase with DNA hypodiploid at 100 uM incubated for 72 hrs by PI-staining based flow cytometry (Rvb=2%); format: functional
HT-29 [3] = assay: Induction of cell cycle arrest in human HT-29 cells assessed as increase in number of cells at sub-G1 phase with DNA hypodiploid at 50 uM incubated for 72 hrs by PI-staining based flow cytometry (Rvb=2%); format: functional
AHH-1 = assay: Cytotoxicity against human AHH-1 cells assessed as inhibition of cell viability at 25 to 200 uM incubated for 72 hrs by MTT assay; format: toxicity, cell-based; conditions: ahh-1, 72 h, dose 25-200 µM
[4] = biological target: Histone acetyltransferase KAT2A (Homo sapiens) (UniProt Q92830); assay: Inhibition of recombinant human KAT2A (323 to 837 residues) using histone H3 peptide and [3H]-acetyl-coA as substrates at 200 uM incubated for 1 hrs by liquid scintillation counter analysis
[5] = biological target: T1, Histone acetyltransferase KAT8 (Homo sapiens) (UniProt Q9H7Z6); assay: Inhibition of human KAT8 in human HT-29 cells assessed as decrease in histone H4K16 acetylation level at 10 to 50 uM incubated for 24 hrs by Western blot analysis; format: cell-based; conditions: dose 10-50 µM
T1 sequence (whole entry): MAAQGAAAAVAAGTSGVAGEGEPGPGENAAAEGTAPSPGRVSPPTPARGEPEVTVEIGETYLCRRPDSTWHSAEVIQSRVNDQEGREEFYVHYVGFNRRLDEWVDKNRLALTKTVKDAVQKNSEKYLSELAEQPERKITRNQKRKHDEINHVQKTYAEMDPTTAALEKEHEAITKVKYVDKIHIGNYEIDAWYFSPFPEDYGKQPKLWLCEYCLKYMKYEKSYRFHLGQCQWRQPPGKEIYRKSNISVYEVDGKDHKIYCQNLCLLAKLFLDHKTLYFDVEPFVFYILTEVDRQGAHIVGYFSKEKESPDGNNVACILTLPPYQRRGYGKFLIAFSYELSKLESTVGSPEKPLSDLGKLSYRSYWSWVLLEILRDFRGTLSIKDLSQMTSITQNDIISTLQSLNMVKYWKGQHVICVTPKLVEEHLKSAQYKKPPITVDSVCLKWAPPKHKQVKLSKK

U-937 = assay: Antiproliferative activity against human U-937 cells assessed as cell proliferation inhibition at 10 to 100 uM incubated for 72 hrs by MTT assay; format: functional, cell-based; conditions: dose 10-100 µM
[6] = GSH reactivity of compound at pH 7.5 buffer at 0.5 mM and measured upto 24 hrs in presence of DTT and BME by HPLC analysis; format: physicochemical; conditions: pH 7.5, 24 h, 500 µM
Homo sapiens = species on record: Homo sapiens; assay: Inhibition of human recombinant KDAC8 using Boc-Lys-(Ac)-AMC as substrate at 50 to 100 uM incubated for 45 mins by fluorescence microplate reader analysis; conditions: dose 50-100 µM
[7] = Cytotoxicity against human Intestinal epithelial cells assessed as inhibition of cell viability at 25 to 200 uM incubated for 72 hrs by MTT assay; format: toxicity, cell-based; conditions: dose 25-200 µM
HeLa [8] = assay: Effect on cell cycle progression in human HeLa cells assessed as changes in cell cycle stages at 50 to 100 uM incubated for 72 hrs by PI-staining based flow cytometry; format: functional; conditions: dose 50-100 µM
HCT-116 [9] = assay: Antiproliferative activity against human HCT-116 cells assessed as cell proliferation inhibition at 10 to 100 uM incubated for 72 hrs by MTT assay; format: functional, cell-based; conditions: dose 10-100 µM
HCT-116 [10] = assay: Induction of cell cycle arrest in human HCT-116 cells assessed as increase in number of cells at sub-G1 phase with DNA hypodiploid at 50 uM incubated for 72 hrs by PI-staining based flow cytometry (Rvb=2%); format: functional
HCT-116 [11] = assay: Induction of cell cycle arrest in human HCT-116 cells assessed as increase in number of cells at sub-G1 phase with DNA hypodiploid at 100 uM incubated for 72 hrs by PI-staining based flow cytometry (Rvb=2%); format: functional
[12] = biological target: T1, Histone acetyltransferase KAT8 (Homo sapiens); assay: Time dependent inhibition of N-terminal 6His tagged KAT8 (173 to 458 residues) (unknown origin) expressed in Escherichia coli BL21(DE3) using biotinylated histone H4 peptide and [3H]Acetyl-CoA as substrates at 200 uM preincubated for 5 to 120 mins followed by substrate addition and measured after 4 hrs by MicroBeta microplate counter analysis; conditions: time 245-360 min

Histone acetyltransferase KAT2A (Homo sapiens), sequence (Q92830 2-837 limits assumed): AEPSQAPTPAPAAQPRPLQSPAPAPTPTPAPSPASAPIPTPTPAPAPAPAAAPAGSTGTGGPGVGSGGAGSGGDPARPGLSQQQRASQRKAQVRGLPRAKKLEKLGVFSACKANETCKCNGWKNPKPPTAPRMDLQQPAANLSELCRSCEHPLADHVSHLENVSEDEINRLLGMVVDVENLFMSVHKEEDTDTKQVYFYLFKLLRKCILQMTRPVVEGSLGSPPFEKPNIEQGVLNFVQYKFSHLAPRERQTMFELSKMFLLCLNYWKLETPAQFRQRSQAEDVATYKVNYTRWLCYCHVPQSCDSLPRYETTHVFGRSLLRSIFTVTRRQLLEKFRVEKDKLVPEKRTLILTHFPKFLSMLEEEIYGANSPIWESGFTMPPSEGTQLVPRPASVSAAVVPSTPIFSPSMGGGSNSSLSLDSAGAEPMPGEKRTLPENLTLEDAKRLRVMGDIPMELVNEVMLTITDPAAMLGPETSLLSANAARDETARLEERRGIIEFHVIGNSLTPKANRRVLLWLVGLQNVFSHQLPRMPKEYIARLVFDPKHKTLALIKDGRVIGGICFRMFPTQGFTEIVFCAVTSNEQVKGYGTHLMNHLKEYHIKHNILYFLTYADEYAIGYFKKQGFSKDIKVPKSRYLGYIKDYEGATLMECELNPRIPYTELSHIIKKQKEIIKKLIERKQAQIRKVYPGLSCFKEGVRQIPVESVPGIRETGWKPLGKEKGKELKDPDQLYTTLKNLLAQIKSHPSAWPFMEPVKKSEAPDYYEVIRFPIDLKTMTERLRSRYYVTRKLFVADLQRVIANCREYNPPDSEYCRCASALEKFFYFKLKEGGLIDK

CC1=NN(c2ccc(C(=O)O)cc2)C(=O)/C1=C\c1ccc[nH]1
Activity (HeLa [1]): 5%
Activity (MCF7): inactive
Activity (NCI-H1299): Dose-Dependent Effect
Activity (HT-29 [2]): 15%
Activity (HT-29 [3]): 7%
Activity (AHH-1): Non-Toxic
inhibition [4]: inactive
inhibition [5]: Active
Activity (U-937): Dose-Dependent Effect
Drug metabolism [6]: Not Active
inhibition (Homo sapiens): inactive
Activity [7]: Non-Toxic
Activity (HeLa [8]): inactive
Activity (HCT-116 [9]): Dose-Dependent Effect
Activity (HCT-116 [10]): 3%
Activity (HCT-116 [11]): 6%
inhibition [12]: inactive

O=C(O)c1ccc(N2N=C(c3ccccc3)/C(=C/c3ccc[nH]3)C2=O)cc1
Activity (HeLa [1]): 4%
Activity (MCF7): inactive
Activity (NCI-H1299): Dose-Dependent Effect
Activity (HT-29 [2]): 14%
Activity (HT-29 [3]): 8%
Activity (AHH-1): Non-Toxic
inhibition [4]: inactive
inhibition [5]: Active
Activity (U-937): Dose-Dependent Effect
Drug metabolism [6]: Not Active
inhibition (Homo sapiens): inactive
Activity [7]: Non-Toxic
Activity (HeLa [8]): inactive
Activity (HCT-116 [9]): Dose-Dependent Effect
Activity (HCT-116 [10]): 7%
Activity (HCT-116 [11]): 13%
inhibition [12]: inactive
